Measurements as given in patent EP1370663B1, “MICROBIOLOGICAL METHOD FOR PRODUCING L-CARNITINE” (priority 2001, dated 2002).

Columns and labels:
Stamm HK4 (DSM 2938) = assay: Growth of strain HK4 on butyrobetaine esters or butyrobetaine as sole C source; type: cell-based, Agrobacterium/Rhizobium HK4 (DSM 2938); conditions: 30°C, 140 upm, 48 to 96 h
Experimental: Der Stamm HK4 (DSM 2938) wurde auf Minimalmedium Agarplatten unter Zusatz von 0,4% (w/v) Betain als einziger C-Quelle nach Einzelkolonie-Ausstrich bei 30°C für 48 bis 72 h inkubiert. Zur Anzucht wurden Einzelkolonien des Stammes von der Agarplatte in das Minimalmedium enthaltend Butyrobetain-methylester (BBMe) und Butyrobetain-ethylester (BBEt) als jeweils einziger C-Quelle überimpft und bei 30°C und 140 upm für 48 bis 96 h inkubiert. Es wurde ein Kontrollversuch durchgeführt, bei dem die Anzucht des Stammes HK4 (DSM 2938) unter den gleichen Bedingungen, jedoch unter Zusatz von Butyrobetain anstelle eines Butyrobetain-esters als einziger C-Quelle, erfolgte.

[1] = Control: storage of butyrobetaine esters in the medium without cells (hydrolytic stability); type: physicochemical; conditions: same medium and conditions as Example 2 (30°C, 74 h) but without cells
Experimental: Die Stämme HK13 (DSM 2903) und HK1349 (DSM 3944) wurden jeweils in "Nutrient Yeast broth" Vorkulturmedium (10 mL), welchem L-Carnitin (0,05% (w/v)) als Induktor des L-Carnitinstoffwechsels zugesetzt wurde, überimpft und 2 Tage bei 30°C und 140 upm inkubiert. Die Vorkulturen (0,01 mL) wurde in das Minimalmedium (10 mL), welches zusätzlich 0,02% (w/v) Betain, 0,05% (v/v) Glycerin, 0,50% (w/v) L-Glutamat und entweder 0,75% (w/v) Butyrobetain-methylester (BBMe) oder 0,75% (w/v) Butyrobetain-ethylester (BBEt) enthielt, überimpft und bei 30°C und 140 upm inkubiert. Nach 40 h betrug die OD650 von beiden Kulturen ca. 9,0 und die Kulturen befanden sich in der stationären Phase. Nach weiteren 34 h wurden Proben entnommen. Die Zellen wurden zentrifugiert (11 000 upm, 5 min) und der Überstand wurde mittels HPLC auf den Gehalt an Butyrobetain, L-Carnitin und nicht umgesetzten Butyrobetain-ester untersucht. Die Ergebnisse sind in Tabelle 2 zusammengefasst. Als Kontrollversuch wurden Butyrobetain-methylester (BBMe) und Butyrobetain-ethylester (BBEt) jeweils im gleichen Medium und unter den gleichen Bedingungen, jedoch ohne Zusatz von Zellen, gelagert. […]

[2] = test system: Hydrolasen im Zellextrakt des Stammes HK1349 (DSM 3944); assay: Substrate specificity of the hydrolases of HK1349 (pH-stat titration); type: biochemical, Agrobacterium/Rhizobium HK1349 (DSM 3944); conditions: 5% (v/v) ester emulsion, 37°C; for Spezifische Hydrolase-Aktivität [U/mg Protein]: lyophilised Triton X-114 supernatant of HK1349; for Relative spezifische Hydrolase-Aktivität [%]: 100% = 0,039 U/mg Protein
Experimental: Die gemäss Beispiel 4.1. erhaltene Zellsuspension (HK1349 (DSM 3944), OD650 nm 37, 50 mM Natriumphosphat-Puffer, pH 7,5) wurde durch 10 minütige Behandlung mit Ultraschall unter Eisbadkühlung aufgeschlossen, mit Triton X-114 (5% (v/v); 30 min; 25°C) inkubiert und dann zentrifugiert (4 000 upm; 10 min; 4°C). Der Überstand wurde lyophilisiert. Der lyophilisierte Überstand (100 mg) wurde in Natriumphosphatpuffer (50 mM; pH 7,5; 1,0 mL) gelöst und zu Emulsionen von Essigsäure-ethylester, Buttersäure-ethylester und Buttersäure-methylester (5% (v/v) Ester emulgiert mittels eines Ultraturrax in destilliertem Wasser enthaltend 2% (w/v) Gummi arabicum; 20 mL) bei 37°C gegeben. Die bei der Hydrolyse des Esters freigesetzte Säure wird mit NaOH (0,01 M) unter Verwendung eines pH-Stats titriert. 1 U (Unit) entspricht der Menge an Säure (in µmol), die pro Minute freigesetzt wird. Die höchste spezifische Hydrolase-Aktivität (0,039 U/mg Protein) wurde als 100%-Wert betrachtet. Die Ergebnisse sind in Tabelle 5 zusammengestellt.

[3] = test system: Hydrolasen im Zellextrakt des Stammes HK1349 (DSM 3944); assay: Hydrolase activity of HK1349 supernatant after cell disruption and treatment with detergents (4-nitrophenyl acetate assay); type: biochemical, Agrobacterium/Rhizobium HK1349 (DSM 3944); conditions: supernatant after cell disruption and treatment with 5% (v/v) detergent, 30 min, 25°C; 100% = 0,30 U/mg Protein
Experimental: Die Bestimmung der Hydrolase-Aktivität erfolgte photometrisch mittels Essigsäue-4-nitrophenylester-Assay. Hierzu wurde die Proteinlösung (900 µL) mit einer Lösung von Essigsäure-4-nitrophenylester (10 mM in Dimethylsulfoxid; 100 µL) bei 25°C versetzt. Die Absorption des während der Hydrolyse gebildeten 4-Nitrophenols (e = 15 × 10^3 × M^-1 cm^-1) wurde bei 410 nm gemessen. 1 Unit (U) entspricht der Menge 4-Nitrophenol (in µmol), die pro Minute freigesetzt wird. Die Bestimmung des Proteingehaltes der eingesetzten Proteinlösung erfolgte mit dem BCA (Bicin choninic acid) Protein Assay kit (Pierce) nach Anleitung des Herstellers. Die spezifische Hydrolase-Aktivität wird angegeben in U/mg Protein und entspricht der Menge 4-Nitrophenol (in µmol), die pro Minute und mg Protein freigesetzt wird.
Die gemäss Beispiel 4.1. erhaltene Zellsuspension (HK1349 (DSM 3944), OD650 nm 37, 50 mM Natriumphosphat-Puffer, pH 7,5) wurde durch 10 minütige Behandlung mit Ultraschall unter Eisbadkühlung aufgeschlossen, mit verschiedenen Detergentien (5% (v/v) Detergenz; 30 min; 25°C) inkubiert und die Zelltrümmer wurden abzentrifugiert (4 000 upm; 10 min; 4°C). Die spezifische Hydrolase-Aktivität der Überstände wurde mittels Essigsäure-4-nitrophenylester-Assay bestimmt. Die höchste spezifische Hydrolase-Aktivität (0,30 U/mg Protein) wurde als 100%-Wert betrachtet. Die Ergebnisse sind in Tabelle 4 zusammengestellt. Die höchste spezifische Hydrolase-Aktivität wurde unter Verwendung von Triton X-114 beobachtet.

[4] = 1,0 % (w/v) as sole C source in minimal medium

| Compound | Wachstum [OD650] (Stamm HK4 (DSM 2938); [4]) | Spezifische Hydrolase-Aktivität [U/mg Protein] [2] | Relative spezifische Hydrolase-Aktivität [%] [2] [%] | Relative spezifische Hydrolase-Aktivität [%] [3] [%] | further results |
| --- | --- | --- | --- | --- | --- |
| COC(=O)CCC[N+](C)(C)C [BBMe, Butyrobetain-methylester] | 0,76 OD650 |  |  |  | Hydrolyse der Butyrobetain-ester zu Butyrobetain [1]: keine Hydrolyse |
| CCCC(=O)OCC [Buttersäure-Ethylester] |  | 0,028 U/mg Protein | 72 |  |  |
| CCCCCCCC/C=C\CCCCCCCC(=O)OCCOCC(OCCO)C1OCC(OCCO)C1OCCO (stereo not drawn) [Tween 80] |  |  |  | 80 |  |
| Triton X-100 |  |  |  | 64 |  |
| CCCCCCCCCCCCOS(=O)(=O)O [SDS] |  |  |  | 26 |  |
| C[N+](C)(C)CCCC(=O)[O-] [Butyrobetain] | 7,0 OD650 |  |  |  |  |
| CCOC(C)=O [Essigsäure-Ethylester] |  | 0,039 U/mg Protein | 100 |  |  |
| CCOC(=O)CCC[N+](C)(C)C [BBEt, Butyrobetain-ethylester] | 0,76 OD650 |  |  |  | Wachstum [OD650] (Stamm HK4 (DSM 2938); 0,2 % (w/v) as sole C source in minimal medium): 0,23 OD650; Hydrolyse der Butyrobetain-ester zu Butyrobetain [1]: keine Hydrolyse |
| CCCC(=O)OC [Buttersäure-Methylester] |  | 0,038 U/mg Protein | 97 |  |  |
